Calls of active or inactive are those of the source. How the calls were made is not given here.
System: CCRIS mutagenicity, Ames/micronucleus/aberration tests
Test: CCRIS mutagenicity studies

Cc1ccc(C(=O)c2cc(O)c(O)c([N+](=O)[O-])c2)cc1
mutagenic call (Test System: AMES SALMONELLA TYPHIMURIUM, Strain/Indicator: TA97, Metabolic Activation: NONE, Method: PREINCUBATION): inactive; negative
mutagenic call (Test System: AMES SALMONELLA TYPHIMURIUM, Strain/Indicator: TA97, Metabolic Activation: NONE, Method: STANDARD PLATE): inactive; negative
mutagenic call (Test System: AMES SALMONELLA TYPHIMURIUM, Strain/Indicator: TA97, Metabolic Activation: RAT, LIVER, S-9, PHENOBARBITAL AND BETA-NAPHTHOFLAVONE, Method: PREINCUBATION): inactive; negative
mutagenic call (Test System: AMES SALMONELLA TYPHIMURIUM, Strain/Indicator: TA97, Metabolic Activation: RAT, LIVER, S-9, PHENOBARBITAL AND BETA-NAPHTHOFLAVONE, Method: STANDARD PLATE): inactive; negative
mutagenic call (Test System: AMES SALMONELLA TYPHIMURIUM, Strain/Indicator: TA98, Metabolic Activation: NONE, Method: PREINCUBATION): inactive; negative
mutagenic call (Test System: AMES SALMONELLA TYPHIMURIUM, Strain/Indicator: TA98, Metabolic Activation: NONE, Method: STANDARD PLATE): inactive; negative
mutagenic call (Test System: AMES SALMONELLA TYPHIMURIUM, Strain/Indicator: TA98, Metabolic Activation: RAT, LIVER, S-9, PHENOBARBITAL AND BETA-NAPHTHOFLAVONE, Method: PREINCUBATION): inactive; negative
mutagenic call (Test System: AMES SALMONELLA TYPHIMURIUM, Strain/Indicator: TA98, Metabolic Activation: RAT, LIVER, S-9, PHENOBARBITAL AND BETA-NAPHTHOFLAVONE, Method: STANDARD PLATE): inactive; negative
mutagenic call (Test System: AMES SALMONELLA TYPHIMURIUM, Strain/Indicator: TA100, Metabolic Activation: NONE, Method: PREINCUBATION): inactive; negative
mutagenic call (Test System: AMES SALMONELLA TYPHIMURIUM, Strain/Indicator: TA100, Metabolic Activation: NONE, Method: STANDARD PLATE): inactive; negative
mutagenic call (Test System: AMES SALMONELLA TYPHIMURIUM, Strain/Indicator: TA100, Metabolic Activation: RAT, LIVER, S-9, PHENOBARBITAL AND BETA-NAPHTHOFLAVONE, Method: PREINCUBATION): inactive; negative
mutagenic call (Test System: AMES SALMONELLA TYPHIMURIUM, Strain/Indicator: TA100, Metabolic Activation: RAT, LIVER, S-9, PHENOBARBITAL AND BETA-NAPHTHOFLAVONE, Method: STANDARD PLATE): inactive; negative
mutagenic call (Test System: AMES SALMONELLA TYPHIMURIUM, Strain/Indicator: TA102, Metabolic Activation: NONE, Method: PREINCUBATION): inactive; negative
mutagenic call (Test System: AMES SALMONELLA TYPHIMURIUM, Strain/Indicator: TA102, Metabolic Activation: NONE, Method: STANDARD PLATE): inactive; negative
mutagenic call (Test System: AMES SALMONELLA TYPHIMURIUM, Strain/Indicator: TA102, Metabolic Activation: RAT, LIVER, S-9, PHENOBARBITAL AND BETA-NAPHTHOFLAVONE, Method: PREINCUBATION): inactive; negative
mutagenic call (Test System: AMES SALMONELLA TYPHIMURIUM, Strain/Indicator: TA102, Metabolic Activation: RAT, LIVER, S-9, PHENOBARBITAL AND BETA-NAPHTHOFLAVONE, Method: STANDARD PLATE): inactive; negative
mutagenic call (Test System: AMES SALMONELLA TYPHIMURIUM, Strain/Indicator: TA1535, Metabolic Activation: NONE, Method: PREINCUBATION): inactive; negative
mutagenic call (Test System: AMES SALMONELLA TYPHIMURIUM, Strain/Indicator: TA1535, Metabolic Activation: NONE, Method: STANDARD PLATE): inactive; negative
mutagenic call (Test System: AMES SALMONELLA TYPHIMURIUM, Strain/Indicator: TA1535, Metabolic Activation: RAT, LIVER, S-9, PHENOBARBITAL AND BETA-NAPHTHOFLAVONE, Method: PREINCUBATION): inactive; negative
mutagenic call (Test System: AMES SALMONELLA TYPHIMURIUM, Strain/Indicator: TA1535, Metabolic Activation: RAT, LIVER, S-9, PHENOBARBITAL AND BETA-NAPHTHOFLAVONE, Method: STANDARD PLATE): inactive; negative
mutagenic call (Test System: AMES SALMONELLA TYPHIMURIUM, Strain/Indicator: TA1537, Metabolic Activation: NONE, Method: PREINCUBATION): inactive; negative
mutagenic call (Test System: AMES SALMONELLA TYPHIMURIUM, Strain/Indicator: TA1537, Metabolic Activation: NONE, Method: STANDARD PLATE): inactive; negative
mutagenic call (Test System: AMES SALMONELLA TYPHIMURIUM, Strain/Indicator: TA1537, Metabolic Activation: RAT, LIVER, S-9, PHENOBARBITAL AND BETA-NAPHTHOFLAVONE, Method: PREINCUBATION): inactive; negative
mutagenic call (Test System: AMES SALMONELLA TYPHIMURIUM, Strain/Indicator: TA1537, Metabolic Activation: RAT, LIVER, S-9, PHENOBARBITAL AND BETA-NAPHTHOFLAVONE, Method: STANDARD PLATE): inactive; negative
mutagenic call (Test System: AMES SALMONELLA TYPHIMURIUM, Strain/Indicator: TA1538, Metabolic Activation: NONE, Method: PREINCUBATION): inactive; negative
mutagenic call (Test System: AMES SALMONELLA TYPHIMURIUM, Strain/Indicator: TA1538, Metabolic Activation: NONE, Method: STANDARD PLATE): inactive; negative
mutagenic call (Test System: AMES SALMONELLA TYPHIMURIUM, Strain/Indicator: TA1538, Metabolic Activation: RAT, LIVER, S-9, PHENOBARBITAL AND BETA-NAPHTHOFLAVONE, Method: PREINCUBATION): inactive; negative
mutagenic call (Test System: AMES SALMONELLA TYPHIMURIUM, Strain/Indicator: TA1538, Metabolic Activation: RAT, LIVER, S-9, PHENOBARBITAL AND BETA-NAPHTHOFLAVONE, Method: STANDARD PLATE): inactive; negative
mutagenic call (Test System: CHINESE HAMSTER V-79, Strain/Indicator: V-79 (HPRT)/6-THIOGUANINE, Metabolic Activation: NONE, Method: SUSPENSION/PLATE): inactive; negative
mutagenic call (Test System: CHINESE HAMSTER V-79, Strain/Indicator: V-79 (HPRT)/6-THIOGUANINE, Metabolic Activation: RAT, LIVER, S-9, AROCLOR 1254, Method: SUSPENSION/PLATE): inactive; negative
mutagenic call (Test System: E. COLI, Strain/Indicator: WP2 UVRA, Metabolic Activation: NONE, Method: PREINCUBATION): inactive; negative
mutagenic call (Test System: E. COLI, Strain/Indicator: WP2 UVRA, Metabolic Activation: NONE, Method: STANDARD PLATE): inactive; negative
mutagenic call (Test System: E. COLI, Strain/Indicator: WP2 UVRA, Metabolic Activation: RAT, LIVER, S-9, PHENOBARBITAL AND BETA-NAPHTHOFLAVONE, Method: PREINCUBATION): inactive; negative
mutagenic call (Test System: E. COLI, Strain/Indicator: WP2 UVRA, Metabolic Activation: RAT, LIVER, S-9, PHENOBARBITAL AND BETA-NAPHTHOFLAVONE, Method: STANDARD PLATE): inactive; negative
mutagenic call (Test System: UDS RAT HEPATOCYTES, Strain/Indicator: THY INCORP, Metabolic Activation: NONE, Method: AUTORADIOGRAPHY): inactive; negative

O=C/C=C/C=C/C(=O)O
mutagenic call (Test System: CHINESE HAMSTER V-79, Strain/Indicator: V-79 (HGPRT)/8-AZAGUANINE, Metabolic Activation: NONE): active; positive

C#CC(OC(=O)C1C(C=C(C)C)C1(C)C)/C(C)=C/CC (configuration not stated)
mutagenic call (Test System: AMES SALMONELLA TYPHIMURIUM, Strain/Indicator: TA98, Metabolic Activation: NONE, Method: MICROSUSPENSION): inactive; negative
mutagenic call (Test System: AMES SALMONELLA TYPHIMURIUM, Strain/Indicator: TA98, Metabolic Activation: S-9, Method: MICROSUSPENSION): inactive; negative
mutagenic call (Test System: AMES SALMONELLA TYPHIMURIUM, Strain/Indicator: TA100, Metabolic Activation: NONE, Method: MICROSUSPENSION): inactive; negative
mutagenic call (Test System: AMES SALMONELLA TYPHIMURIUM, Strain/Indicator: TA100, Metabolic Activation: S-9, Method: MICROSUSPENSION): inactive; negative

C=C(C=O)CCC
mutagenic call (Test System: AMES SALMONELLA TYPHIMURIUM, Strain/Indicator: TA100, Metabolic Activation: RAT LIVER S-9, AROCLOR 1254, Method: PREINCUBATION): active; positive
mutagenic call (Test System: AMES SALMONELLA TYPHIMURIUM, Strain/Indicator: TA100, Metabolic Activation: RAT, LIVER, S-9, AROCLOR 1254, Method: PREINCUBATION): active; positive

Reference: PubChem BioAssay AID1259407 (Chemical Carcinogenesis Research Information System (CCRIS), 2018)
